# Patent publication US11512821B2, “Systems and method for evaluating ultraviolet-protection products” (ABICH INC., priority 2019, dated 2022)
# Like-named read-outs stand apart in the source and are kept apart here.
# How the values were obtained:
# CD86 (B7.2) = conditions: for CD86 % compared to CN: THP-1, 24 h; for CD86 MFI: THP-1, 24 h at 37° C.
# From the text: (§1) The purpose of the test is to assess the absence of pro-sensitizing skin effects from finished products or raw materials intended for contact with the skin or mucous membranes, such as medical devices, cosmetics, toys or textiles. In the present study, we used a human monocytes cell line (THP-1) as prototypic blood-derived immunologically active cell. On these cells, we tested the expression of two costimulatory molecules, CD54 (Intercellular Adhesion Molecule) and CD86 (B7.2), using as a positive control Nickel sulphate, a well-known contact sensitizing agent. Nickel sulphate is able to cause in vivo allergic immune reactions (skin sensitization) and it is also been widely used to study in vitro immune response modulation. As silicone elastomer (Silicone 30A—example of medical grade silicone) was tested at two concentrations, against Nickel positive controls.
# (§2) The increasing expression level of CD54 and CD86 on monocytes is a signal of activation of the immune response derived from the exposition to a potentially sensitizing contact antigen. The expression of co-stimulatory molecules on the dendritic cells means activation of the immunological response in terms of capability to present the antigen in the typical tissues (skin in this case), where, in vivo, the immune protective response is triggered.
# (§3) The normative reference is OECD Guideline 442E, “In vitro Skin Sensitization; Human Cell Line Activation Test (hCLAT)”, which is hereby incorporated by reference in its entirety. The method differs from the OECD Guideline as the test is performed in a single experimental session instead of three independent tests. As positive control, Nickel Sulfate is used instead of DNCB. […] In addition, the acceptance criteria and choice of concentrations to be used in the final test have been optimized according to the laboratory's historical results over the past 10 years.
# (§4) The test is carried out on a monocyte-like human line called THP-1. Cells are kept in RPMI containing 10% FCS and 2 mM glutamine.
# (§5) The sample has been eluted in phosphate buffered saline (1 g/5 ml) for 24 hours at 37° C. The eluted sample was diluted in the cell culture medium at different concentrations for the preliminary cytotoxicity screening on the cells aimed to decide the best concentration to test it without cytotoxic effects on the monocytes, in order to avoid false results. Cell medium exposed to the same experimental conditions were used as a negative control.
# (§6) Following the results of the preliminary assay, the eluted sample was diluted directly in the cell medium at the two different dilutions in order to obtain the desired final concentrations in contact with the THP-1 cells in vitro. The exposure has been carried out for 24 h at 37° C. with 5% CO2.
# (§7) After the incubation with the tested substance and the controls, cells are collected, checked under the microscope for their viability by staining with Trypan Blue dye and counting in a cell counter chamber, washed in PBS and then marked with a fluoresceinated anti-Intercellular Adhesion Molecule (CD54) or B7.2 (CD86) antibody and in both cases with a propidium iodide (PI) solution to simultaneously measure the percentage of dead cells. To this aim, a PI working solution (1 ml PI stock solution (1 mg PI/ml water) in 20 ml PI buffer (1 g glucose/l PBS without Ca/Mg)) is added to […]. A gate is set on the negative cells in order to exclude the dead cells. Only viable cells are included for analyses of CD54 or CD86 expression. After washing, to eliminate the excess antibody, the MFI (Mean Fluorescence Intensity) linked to the cells is evaluated by means of a flux cytofluorimeter (FACS, Fluorescence Activated Cell Sorter, Becton Dickinson, Mountain View, Calif.). This value is proportional to the expression of co-stimulatory molecules.
# (§8) The results are expressed in terms of MFI (Mean Fluorescence Intensity).
# [1] = system: CD54 (Intercellular Adhesion Molecule); conditions: for CD54 % compared to Negative Control (CN): THP-1, 24 h; for CD54 MFI: THP-1, 24 h at 37° C.
# From the text: as §1, §2, §3, §4, §5, §6, §7, §8
# THP-1 cells = format: cell-based; conditions: percent of living cells (PI negative), b192
# From the text: Cell vitality: The percent of living cells (PI negative) must be above 80% in all samples.
smiles,measurement,setting,value
"O.O.O.O.O.O.O=S(=O)([O-])[O-].[Ni+2] [Nickel Sulfate, Nickel Sulphate (NiSO4.6H2O)]",CD86 % compared to CN,CD86 (B7.2); 4 μg/ml,27.95%
same,CD86 MFI,CD86 (B7.2); 4 μg/ml,26.32
same,CD86 % compared to CN,CD86 (B7.2); 10 μg/ml,146.23%
same,CD86 MFI,CD86 (B7.2); 10 μg/ml,50.65
same,CD86 % compared to CN,CD86 (B7.2); 20 μg/ml,399.03%
same,CD86 MFI,CD86 (B7.2); 20 μg/ml,102.65
same,CD54 % compared to Negative Control (CN),[1]; 4 μg/ml,35.74%
same,CD54 MFI,[1]; 4 μg/ml,33.65
same,CD54 % compared to Negative Control (CN),[1]; 10 μg/ml,63.61%
same,CD54 MFI,[1]; 10 μg/ml,40.56
same,CD54 % compared to Negative Control (CN),[1]; 20 μg/ml,163.94%
same,CD54 MFI,[1]; 20 μg/ml,65.43
same,PI,THP-1 cells; 4 μg/ml,88
same,PI,THP-1 cells; 10 μg/ml,86
same,PI,THP-1 cells; 20 μg/ml,86
